Source: the supplement of paper PMC10627819

Experiments:
[1] = test system: S. aureus Newman; assay: Bliss interaction score (quartile over a dose matrix) (fitness difference); higher = more antagonism (negative = synergy)
Summary of the method: (§1)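 Combination data were used to infer fitness under each single drug. Fitness is the OD595 at entry into stationary phase divided by the robust mean of the plate's no-drug wells, with a cap of 1. The Bliss score is the observed minus the expected product fitness, summarised by quartiles over technical, biological and donor/recipient replicates.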

[2] = test system: B. subtilis 168; assay: as above
Summary of the method: as §1

[3] = test system: S. pneumoniae D39V; assay: as above
Summary of the method: as §1

[4] = test system: S. aureus DSM 20231; assay: as above
Summary of the method: as §1

[5] = test system: S. aureus Newman; assay: fitness (endpoint OD595 vs no drug) (fraction); higher = more growth
Summary of the method: (§2)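 Each well of a 384-well plate received 30 µl of culture at OD595 0.01, or 55 µl for S. pneumoniae. TSB, LB Lennox or CY served as media at 37 °C. OD595 was taken every 30 min for 14 h and corrected by subtracting the first reading. Fitness is the optical density at stationary-phase entry divided by the robust mean of no-drug controls, capped at 1.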

[6] = test system: B. subtilis 168; assay: as above
Summary of the method: as §2

[7] = test system: S. aureus DSM 20231; assay: as above
Summary of the method: as §2

[8] = test system: S. pneumoniae D39V; assay: as above
Summary of the method: as §2
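Wherever Bliss interaction score (quartile over a dose matrix) is given: first quartile when negative (synergy) and third quartile when positive (antagonism).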

CC[C@H]1OC(=O)[C@H](C)[C@@H](O[C@H]2C[C@@](C)(OC)[C@@H](O)[C@H](C)O2)[C@H](C)[C@@H](O[C@@H]2O[C@H](C)C[C@H](N(C)C)[C@H]2O)[C@](C)(O)C[C@@H](C)CN(C)[C@H](C)[C@@H](O)[C@]1(C)O [Azithromycin] + CN(N=O)C(=O)N[C@@H](C=O)[C@@H](O)[C@H](O)[C@H](O)CO [Streptozotocin]
Conditions	Bliss interaction score
[1]	0.0643
[2]	0.0551
[3]	0.0501
[4]	-0.0752

fitness
Conditions	partner 0.15 µg/mL	partner 0.3 µg/mL	partner 0.6 µg/mL
[5], first compound 0.125 µg/mL	0.81	0.707	0.564
[5], first compound 0.25 µg/mL	0.811	0.76	0.657
[5], first compound 0.5 µg/mL	0.576	0.5	0.367
[6], first compound 0.25 µg/mL	0.938	0.952	0.918
[6], first compound 0.5 µg/mL	0.897	0.902	0.842
[7], first compound 0.125 µg/mL	0.796	0.742	0.703
[7], first compound 0.25 µg/mL	0.72	0.73	0.736
[7], first compound 0.5 µg/mL	0.37	0.293	–

Cc1onc(-c2ccccc2)c1C(=O)N[C@@H]1C(=O)N2[C@@H]1SC(C)(C)[C@@H]2C(=O)O [Oxacillin] + CN[C@H](CC(C)C)C(=O)N[C@H]1C(=O)N[C@@H](CC(N)=O)C(=O)N[C@H]2C(=O)N[C@H]3C(=O)N[C@H](C(=O)N[C@H](C(=O)O)c4cc(O)cc(O)c4-c4cc3ccc4O)[C@H](O)c3ccc(c(Cl)c3)Oc3cc2cc(c3O[C@@H]2O[C@H](CO)[C@@H](O)[C@H](O)[C@H]2O[C@H]2C[C@](C)(N)[C@H](O)[C@H](C)O2)Oc2ccc(cc2Cl)[C@H]1O [Vancomycin]
Conditions	Bliss interaction score
[1]	-0.0696
[2]	-0.0574
[3]	-0.302
[4]	-0.0751

Conditions	fitness
[5], first compound 0.0156 µg/mL, partner 0.1875 µg/mL	0.785
[5], first compound 0.0156 µg/mL, partner 0.375 µg/mL	0.756
[5], first compound 0.0312 µg/mL, partner 0.1875 µg/mL	0.715
[5], first compound 0.0312 µg/mL, partner 0.375 µg/mL	0.724
[5], first compound 0.0312 µg/mL, partner 0.75 µg/mL	0.712
[5], first compound 0.0625 µg/mL, partner 0.1875 µg/mL	0.652
[5], first compound 0.0625 µg/mL, partner 0.375 µg/mL	0.637
[7], first compound 0.0156 µg/mL, partner 0.1875 µg/mL	0.776
[7], first compound 0.0156 µg/mL, partner 0.375 µg/mL	0.867
[7], first compound 0.0156 µg/mL, partner 0.75 µg/mL	0.81
[7], first compound 0.0312 µg/mL, partner 0.1875 µg/mL	0.641
[7], first compound 0.0312 µg/mL, partner 0.375 µg/mL	0.73
[7], first compound 0.0312 µg/mL, partner 0.75 µg/mL	0.679
[7], first compound 0.0625 µg/mL, partner 0.1875 µg/mL	0.519
[7], first compound 0.0625 µg/mL, partner 0.375 µg/mL	0.516
[7], first compound 0.0625 µg/mL, partner 0.75 µg/mL	0.564
[8], first compound 0.01 µg/mL, partner 0.03125 µg/mL	0.988
[8], first compound 0.01 µg/mL, partner 0.0625 µg/mL	0.906
[8], first compound 0.01 µg/mL, partner 0.25 µg/mL	0.243
[8], first compound 0.01 µg/mL, partner 0.5 µg/mL	0.0401
[8], first compound 0.02 µg/mL, partner 0.03125 µg/mL	0.859
[8], first compound 0.02 µg/mL, partner 0.0625 µg/mL	0.734
[8], first compound 0.02 µg/mL, partner 0.25 µg/mL	0.149
[8], first compound 0.02 µg/mL, partner 0.5 µg/mL	0.0421
[8], first compound 0.04 µg/mL, partner 0.03125 µg/mL	0.271
[8], first compound 0.04 µg/mL, partner 0.0625 µg/mL	0.18
[8], first compound 0.04 µg/mL, partner 0.125 µg/mL	0.108
[8], first compound 0.04 µg/mL, partner 0.25 µg/mL	0.101
[8], first compound 0.04 µg/mL, partner 0.5 µg/mL	0.056

Cc1onc(-c2ccccc2)c1C(=O)N[C@@H]1C(=O)N2[C@@H]1SC(C)(C)[C@@H]2C(=O)O [Oxacillin] + Cn1nnc(-c2ccc(-c3ccc(N4C[C@H](CO)OC4=O)cc3F)cn2)n1 [Tedizolid]
Conditions	Bliss interaction score
[1]	-0.0682
[2]	-0.0469
[3]	0.0979
[4]	0.0921

fitness
Conditions	partner 0.03125 µg/mL	partner 0.0625 µg/mL	partner 0.125 µg/mL	partner 0.25 µg/mL	partner 0.5 µg/mL
[5], first compound 0.0156 µg/mL	–	0.746	0.673	0.425	–
[5], first compound 0.0312 µg/mL	–	0.693	0.579	0.24	–
[5], first compound 0.0625 µg/mL	–	0.562	0.481	0.159	–
[7], first compound 0.0156 µg/mL	–	0.791	0.731	0.312	–
[7], first compound 0.0312 µg/mL	–	0.687	0.593	0.279	–
[7], first compound 0.0625 µg/mL	–	0.51	0.503	0.261	–
[8], first compound 0.01 µg/mL	0.974	0.931	0.851	0.683	0.336
[8], first compound 0.02 µg/mL	0.935	0.933	0.835	0.644	0.39
[8], first compound 0.04 µg/mL	–	0.728	0.614	0.468	0.157

C[n+]1ccc(-c2cc[n+](C)cc2)cc1 [Paraquat] + CN[C@H](CC(C)C)C(=O)N[C@H]1C(=O)N[C@@H](CC(N)=O)C(=O)N[C@H]2C(=O)N[C@H]3C(=O)N[C@H](C(=O)N[C@H](C(=O)O)c4cc(O)cc(O)c4-c4cc3ccc4O)[C@H](O)c3ccc(c(Cl)c3)Oc3cc2cc(c3O[C@@H]2O[C@H](CO)[C@@H](O)[C@H](O)[C@H]2O[C@H]2C[C@](C)(N)[C@H](O)[C@H](C)O2)Oc2ccc(cc2Cl)[C@H]1O [Vancomycin]
Conditions	Bliss interaction score
[1]	0.0613
[2]	0.0779
[3]	0.101
[4]	0.0505

Conditions	fitness
[5], first compound 1.25 µg/mL, partner 0.1875 µg/mL	0.933
[5], first compound 1.25 µg/mL, partner 0.375 µg/mL	0.898
[5], first compound 2.5 µg/mL, partner 0.1875 µg/mL	0.911
[5], first compound 2.5 µg/mL, partner 0.375 µg/mL	0.898
[5], first compound 5 µg/mL, partner 0.1875 µg/mL	0.933
[5], first compound 5 µg/mL, partner 0.375 µg/mL	0.917
[5], first compound 5 µg/mL, partner 0.75 µg/mL	0.935
[7], first compound 1.25 µg/mL, partner 0.1875 µg/mL	0.908
[7], first compound 1.25 µg/mL, partner 0.375 µg/mL	0.956
[7], first compound 1.25 µg/mL, partner 0.75 µg/mL	0.963
[7], first compound 2.5 µg/mL, partner 0.1875 µg/mL	0.87
[7], first compound 2.5 µg/mL, partner 0.375 µg/mL	0.986
[7], first compound 2.5 µg/mL, partner 0.75 µg/mL	0.969
[7], first compound 5 µg/mL, partner 0.1875 µg/mL	0.861
[7], first compound 5 µg/mL, partner 0.375 µg/mL	≥ 1
[7], first compound 5 µg/mL, partner 0.75 µg/mL	0.964
[8], first compound 1.5 µg/mL, partner 0.03125 µg/mL	0.998
[8], first compound 1.5 µg/mL, partner 0.0625 µg/mL	0.984
[8], first compound 1.5 µg/mL, partner 0.125 µg/mL	0.855
[8], first compound 3 µg/mL, partner 0.03125 µg/mL	1
[8], first compound 3 µg/mL, partner 0.0625 µg/mL	0.994
[8], first compound 3 µg/mL, partner 0.125 µg/mL	0.851
[8], first compound 6 µg/mL, partner 0.03125 µg/mL	≥ 1
[8], first compound 6 µg/mL, partner 0.0625 µg/mL	0.974
[8], first compound 6 µg/mL, partner 0.125 µg/mL	0.891

fitness, [8], one replicate
Conditions	first compound 1.5 µg/mL	first compound 3 µg/mL	first compound 6 µg/mL
partner 0.25 µg/mL	0.18	0.249	0.372
partner 0.5 µg/mL	0.0697	0.0334	0.129
